pEC50: −log10 of the molar value.
Columns and labels:
HBV [1] = assay: In vitro anti-HBV activity in HepG2.2.15 cell line (intracellular HBV DNA by qPCR at 1 μM); format: cell-based; settings: Hepatitis B virus, 144 h; HepG2.2.15 cells, 1 μM compound, 6 days, intracellular HBV DNA as percentage compared to vehicle control (0.5% DMSO)
Method in brief: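 Intracellular HBV DNA was quantified by qPCR and given as percent of vehicle (0.5% DMSO), grouped into letter ranges. Stably transfected HepG2.2.15 cells had 6 days of exposure to 1 μM compound, with medium and compound renewed after day 3.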

HBV [2] = assay: Effect on intrahepatic HBV DNA levels in HepG2.2.15 cells (EC50); format: cell-based; settings: Hepatitis B virus, 144 h, 6 days, intrahepatic HBV DNA by qPCR, read-out: Anti-HBV DNA (EC50)
Description: HepG2.2.15 cells were treated with compounds, at various concentrations in 10% FCS containing medium, at 37° C. for three days. After that the medium was removed and fresh medium containing the compound was added to the cells for another 3 days. After 6 days of treatment, intrahepatic HBV DNA from cell lysates were isolated. Then qPCR reaction of DNA was performed to measure total HBV DNA levels using specific primer set. The fifty-percent effective concentrations (EC50) for HBV DNA inhibition, relative to no drug controls, was determined using nonlinear fitting curve model. EC50 ranges for HBV DNA inhibition were as follows: A>0.3 μM, B=0.05-0.3 μM, C<0.05 μM (Table B).

HBV core protein (Cp149) = molecular target: T1, HBV core protein (Cp149) (Hepatitis B virus genotype D subtype ayw, UniProt P03146); assay: HBV capsid assembly by size exclusion chromatography (SEC); format: biochemical; settings: 50 μM compound, 15 μM Cp149, 16 hours at 21° C.
T1 construct: HBV core C-terminally truncated protein (HBV Cp149); made in house

[3] = Cytotoxicity (MTT) in HepG2.2.15 cells; format: cell-based; settings: human, 6 days treatment, read-out: HepG2.1.15 cytotoxicity (CC50)
Description: HepG2.2.15 cells were seeded onto 96-well culture plate and allowed to adhere for 24 hours. The cells were treated with various concentrations of the compounds for 6 days. After treatment, the culture media were discarded and further incubated with serum-free media containing […] of 3-(4,5-dimethylthiazol-2-yl)-2,5-diphenyl tetrazolium bromide (MTT) for 2 hour. The resulting formazan crystals were completely dissolved in dimethyl sulfoxide (DMSO), and then measured absorbance at 570 nm using microplate reader. The concentrations of compounds producing 50% cell death (CC50) were determined from a fitting of concentration-response curve (% cell viability versus concentration) to a four-parameter equation.

T1 sequence (P03146 1-149): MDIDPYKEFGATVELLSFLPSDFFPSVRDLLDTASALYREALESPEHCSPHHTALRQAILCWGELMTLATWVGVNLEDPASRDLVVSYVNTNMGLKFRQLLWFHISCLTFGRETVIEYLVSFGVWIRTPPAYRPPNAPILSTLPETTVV

SMILES	activity at 1 µM (HBV [1]) [%]	pEC50 (HBV [2])	Size of induced capsids based on SEC retention times (HBV core protein (Cp149))	CC50 at 6 days [3] [µM]
O=C(Nc1ccc(F)c(Cl)c1)[C@H]1CCN(C(=O)c2[nH]c3ccccc3c2Cl)C1 [Example 41, (S)-1-(3-chloro-1H-indole-2-carbonyl)-N-(3-chloro-4-fluoro-phenyl)pyrrolidine-3-carboxamide]	< 45	6.52 to 7.30		
N#Cc1c(C(=O)N2CC[C@H](C(=O)Nc3cc(F)c(F)c(F)c3)C2)[nH]c2ccccc12 [Example 45, (S)-1-(3-cyano-1H-indole-2-carbonyl)-N-(3,4,5-trifluorophenyl)pyrrolidine-3-carboxamide]	60 to 70		induced capsids similar in size to NVR 3-778	
O=C(Nc1cc(F)c(F)c(F)c1)[C@H]1CCN(C(=O)c2ccc(Cl)[nH]2)C1 [Example 52, (S)-1-(5-chloro-1H-pyrrole-2-carbonyl)-N-(3,4,5-trifluorophenyl)pyrrolidine-3-carboxamide]	70 to 80		induced capsids similar in size to NVR 3-778	
C[C@H]1[C@@H](C(=O)Nc2ccc(F)c(C#N)c2)CCN1C(=O)c1ccc(Cl)[nH]1 [Example 65, (2S,3S)-1-(5-chloro-1H-pyrrole-2-carbonyl)-N-(3-cyano-4-fluorophenyl)-2-methylpyrrolidine-3-carboxamide]	< 45	6.52 to 7.30		> 25
C[C@H]1[C@@H](C(=O)Nc2cc(F)c(F)c(F)c2)CCN1C(=O)c1nc2cccnc2[nH]1 [Example 70, (2S,3S)-1-(3H-imidazo[4,5-b]pyridine-2-carbonyl)-2-methyl-N-(3,4,5-trifluorophenyl)pyrrolidine-3-carboxamide]	45 to 60	6.52 to 7.30		> 25
Cc1ncnc(C)c1-c1ccc(C(=O)N2CC[C@H](C(=O)Nc3cc(F)c(F)c(Cl)c3)C2)[nH]1 [Example 100, (S)—N-(3-chloro-4,5-difluorophenyl)-1-(5-(4,6-dimethylpyrimidin-5-yl)-1H-pyrrole-2-carbonyl)pyrrolidine-3-carboxamide]	< 45	> 7.30		10 to 25
Cc1ncc(-c2ccc(C(=O)N3CC[C@H](C(=O)Nc4ccc(F)c(Cl)c4)[C@@H]3C)[nH]2)cn1 [Example 127, (2S,3S)—N-(3-chloro-4-fluorophenyl)-2-methyl-1-(5-(2-methylpyrimidin-5-yl)-1H-pyrrole-2-carbonyl)pyrrolidine-3-carboxamide]	< 45	6.52 to 7.30		
Cc1c(-c2ccc(C(=O)N3CC[C@H](C(=O)Nc4cc(F)c(F)c(F)c4)C3)[nH]2)cnc2[nH]ccc12 [Example 129, (S)-1-(5-(4-methyl-1H-pyrrolo[2,3-b]pyridin-5-yl)-1H-pyrrole-2-carbonyl)-N-(3,4,5-trifluorophenyl)pyrrolidine-3-carboxamide]	< 45		induced capsids similar in size to NVR 3-778	
Cc1ncnc(C)c1-c1ccc2cc(C(=O)N3CC[C@H](C(=O)Nc4cc(F)c(F)c(F)c4)C3)[nH]c2c1 [Example 132, (S)-1-(6-(4,6-dimethylpyrimidin-5-yl)-1H-indole-2-carbonyl)-N-(3,4,5-trifluorophenyl) pyrrolidine-3-carboxamide]	45 to 60		induced capsids similar in size to NVR 3-778	
Cc1ncnc(C)c1-c1ccc2c(Cl)c(C(=O)N3CC[C@H](C(=O)Nc4cc(F)c(F)c(F)c4)C3)[nH]c2c1 [Example 133, (S)-1-(3-chloro-6-(4,6-dimethylpyrimidin-5-yl)-1H-indole-2-carbonyl)-N-(3,4,5-trifluorophenyl)pyrrolidine-3-carboxamide]	45 to 60		capsid retention times between BAY 41-4109 and NVR 3-778	
Cc1ncnc(C)c1-c1ccc2c(Cl)c(C(=O)N3CC[C@H](C(=O)Nc4ccc(F)c(C#N)c4)C3)[nH]c2c1 [Example 135, (S)-1-(3-chloro-6-(4,6-dimethylpyrimidin-5-yl)-1H-indole-2-carbonyl)-N-(3-cyano-4-fluorophenyl)pyrrolidine-3-carboxamide]	< 45	6.52 to 7.30	capsid retention times between BAY 41-4109 and NVR 3-778	
Cc1nccnc1-c1ccc2c(Cl)c(C(=O)N3CC[C@H](C(=O)Nc4ccc(F)c(C#N)c4)C3)[nH]c2c1 [Example 139, (S)-1-(3-chloro-6-(3-methylpyrazin-2-yl)-1H-indole-2-carbonyl)-N-(3-cyano-4-fluorophenyl) pyrrolidine-3-carboxamide]	< 45		capsid retention times between BAY 41-4109 and NVR 3-778	
C[C@H]1[C@@H](C(=O)Nc2ccc(F)c(C#N)c2)CCN1C(=O)c1[nH]c2cc(-c3cn[nH]c3)ccc2c1Cl [Example 141, (2S,3S)-1-(3-chloro-6-(1H-pyrazol-4-yl)-1H-indole-2-carbonyl)-N-(3-cyano-4-fluorophenyl)-2-methylpyrrolidine-3-carboxamide]	< 45		capsid retention times between BAY 41-4109 and NVR 3-778	
Cc1nn(C)cc1Cc1ccc(C(=O)N2CC[C@H](C(=O)Nc3cc(F)c(F)c(F)c3)C2)[nH]1 [Example 146, (S)-1-(5-((1,3-dimethyl-1H-pyrazol-4-yl)methyl)-1H-pyrrole-2-carbonyl)-N-(3,4,5-trifluorophenyl)pyrrolidine-3-carboxamide]	70 to 80			
Cc1cc(NC(=O)[C@H]2CCN(C(=O)c3ccc(-c4c(C)nn(CC(=O)O)c4C)[nH]3)[C@H]2C)ccc1F [Example 147, 2-(4-(5-((2S,3S)-3-((4-fluoro-3-methylphenyl)carbamoyl)-2-methylpyrrolidine-1-carbonyl)-1H-pyrrol-2-yl)-3,5-dimethyl-1H-pyrazol-1-yl)acetic acid]	45 to 60			
N#Cc1ncccc1-c1ccc(C(=O)N2CC[C@H](C(=O)Nc3ccc(F)c(Cl)c3)C2)[nH]1 [Example 148, (S)—N-(3-chloro-4-fluorophenyl)-1-(5-(2-cyanopyridin-3-yl)-1H-pyrrole-2-carbonyl)pyrrolidine-3-carboxamide]	45 to 60			
Cc1c(-c2ccc(C(=O)N3CC[C@H](C(=O)Nc4cc(F)c(F)c(F)c4)C3)[nH]2)c2ncccc2n1C [Example 152, (S)-1-(5-(1,2-dimethyl-1H-pyrrolo[3,2-b]pyridin-3-yl)-1H-pyrrole-2-carbonyl)-N-(3,4,5-trifluorophenyl)pyrrolidine-3-carboxamide]	> 90			
Cc1c(-c2ccc(C(=O)N3CC[C@H](C(=O)Nc4cc(F)c(F)c(F)c4)C3)[nH]2)c2cccnc2n1C [Example 153, (S)-1-(5-(1,2-dimethyl-1H-pyrrolo[2,3-b]pyridin-3-yl)-1H-pyrrole-2-carbonyl)-N-(3,4,5-trifluorophenyl)pyrrolidine-3-carboxamide]	< 45			
Cn1cc(-c2ccc(C(=O)N3CC[C@H](C(=O)Nc4cc(F)c(F)c(F)c4)C3)[nH]2)c2ccncc21 [Example 158, (S)-1-(5-(1-methyl-1H-pyrrolo[2,3-c]pyridin-3-yl)-1H-pyrrole-2-carbonyl)-N-(3,4,5-trifluorophenyl)pyrrolidine-3-carboxamide]	60 to 70			
Cc1cc(NC(=O)[C@@H]2CN(C(=O)c3[nH]c4ccccc4c3Cl)C[C@H]2C)ccc1F [Example 167, (3S,4S)-1-(3-chloro-1H-indole-2-carbonyl)-N-(4-fluoro-3-methylphenyl)-4-methylpyrrolidine-3-carboxamide]	45 to 60			
Cc1cc(NC(=O)[C@@H]2CN(C(=O)c3ccc(-c4c(C)ncnc4C)[nH]3)C[C@H]2C)ccc1F [Example 168, (3S,4S)-1-(5-(4,6-dimethylpyrimidin-5-yl)-1H-pyrrole-2-carbonyl)-N-(4-fluoro-3-methylphenyl)-4-methylpyrrolidine-3-carboxamide]	45 to 60			
Cc1cc(NC(=O)[C@@H]2CN(C(=O)c3ccc(-c4c(C)n[nH]c4C)[nH]3)C[C@H]2C)ccc1F [Example 169, (3S,4S)-1-(5-(3,5-dimethyl-1H-pyrazol-4-yl)-1H-pyrrole-2-carbonyl)-N-(4-fluoro-3-methylphenyl)-4-methylpyrrolidine-3-carboxamide]	< 45			
Cc1ncnc(C)c1-c1ccc(C(=O)N2CC[C@H](C(=O)Nc3ccc(F)c(C4CC4)c3)[C@@H]2C)[nH]1 [Example 170, (2S,3S)—N-(3-cyclopropyl-4-fluorophenyl)-1-(5-(4,6-dimethylpyrimidin-5-yl)-1H-pyrrole-2-carbonyl)-2-methylpyrrolidine-3-carboxamide]	< 45			
